Here are results for 6 test systems from the supplement of paper PMC6045584.

Compound in assay [1]: CCCS(=O)(=O)Nc1ccc(F)c(C(=O)c2c[nH]c3ncc(Cl)cc23)c1F [PLX-4720]
Put plainly: surviving fraction relative to DMSO-only wells; higher = less growth inhibition. The conditions noted are these: exposure time: 5 days. In a few lines: (§1)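 Luminescence normalised to the median of DMSO-only wells defines surviving fraction, with viability read by CellTiter-Glo. Signal was recorded after 10 minutes at room temperature, once log-phase tumour cell lines seeded at 250–500 cells per well in 384-well plates had spent 24 hours settling and then five days under continuous exposure to inhibitors at 0.5, 1, 5, 10, 50, 100, 500 and 1000 nM.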

Compound in assay [2]: O=C(NOCC1CC1)c1ccc(F)c(F)c1Nc1ccc(I)cc1Cl
Described as above. The conditions noted are these: exposure time: 5 days. In a few lines:
as §1

± gives the standard deviation of the averaged measurements.

Take T47D BREAST: the surviving fraction in assay [1] (0.5 nM) is 0.81 ± 0.036; in assay [1] (1 nM), 0.921 ± 0.0064; in assay [1] (5 nM) it was 0.919 ± 0.043; in assay [1] (10 nM), 0.953 ± 0.025; in assay [1] (50 nM), 0.914 ± 0.015; in assay [1] (100 nM), 1.04 ± 0.06. The surviving fraction in assay [1] (500 nM) is 0.994 ± 0.021; in assay [1] (1000 nM) it was 1.01 ± 0.043; in assay [2] (0.5 nM), 0.8871 ± 0.0062; in assay [2] (1 nM), 0.999 ± 0.027; in assay [2] (5 nM) it was 0.943 ± 0.018; in assay [2] (10 nM), 1.008 ± 0.0089. Besides, the surviving fraction turned out to be 0.899 ± 0.011 in assay [2] (50 nM), 1.06 ± 0.04 in assay [2] (100 nM), 0.996 ± 0.075 in assay [2] (500 nM) and 0.977 ± 0.07 in assay [2] (1000 nM).

Take U2OS BONE: the surviving fraction in assay [1] (0.5 nM) came to 0.914 ± 0.029; in assay [1] (1 nM) it was 0.9627 ± 0.0058; in assay [1] (5 nM), 0.949 ± 0.007; in assay [1] (10 nM), 0.978 ± 0.035; in assay [1] (50 nM), 1.06 ± 0.054; in assay [1] (100 nM), 1.08 ± 0.059. The surviving fraction in assay [1] (500 nM) worked out at 1.07 ± 0.026; in assay [1] (1000 nM), 1.1 ± 0.039; in assay [2] (0.5 nM) it was 1.03 ± 0.016; in assay [2] (1 nM), 1.03 ± 0.019; in assay [2] (5 nM), 1.02 ± 0.036; in assay [2] (10 nM) it was 1.07 ± 0.042. For the same test system, the surviving fraction turned out to be 0.983 ± 0.026 in assay [2] (50 nM), 0.996 ± 0.035 in assay [2] (100 nM), 0.95 ± 0.03 in assay [2] (500 nM) and 0.876 ± 0.03 in assay [2] (1000 nM).

In the case of VCAP PROSTATE, the surviving fraction in assay [1] (0.5 nM) was found to be 0.915 ± 0.03; in assay [1] (1 nM) it was 0.942 ± 0.048; in assay [1] (5 nM), 0.934 ± 0.031; in assay [1] (10 nM), 0.986 ± 0.074; in assay [1] (50 nM), 0.966 ± 0.01; in assay [1] (100 nM), 1.11 ± 0.14. For the same test system, the surviving fraction in assay [1] (500 nM) was determined as 1.08 ± 0.061; in assay [1] (1000 nM), 1.07 ± 0.023; in assay [2] (0.5 nM), 0.925 ± 0.048; in assay [2] (1 nM), 0.984 ± 0.082; in assay [2] (5 nM) it was 0.923 ± 0.042; in assay [2] (10 nM), 1.01 ± 0.12. Besides, the surviving fraction turned out to be 0.86 ± 0.079 in assay [2] (50 nM), 1.08 ± 0.068 in assay [2] (100 nM), 1.05 ± 0.13 in assay [2] (500 nM) and 0.975 ± 0.0027 in assay [2] (1000 nM).

For VP229 BREAST, the surviving fraction came to 0.861 ± 0.03 in assay [1] (0.5 nM); 0.838 ± 0.056 in assay [1] (1 nM); 0.861 ± 0.055 in assay [1] (5 nM); 0.887 ± 0.019 in assay [1] (10 nM); 1.03 ± 0.065 in assay [1] (50 nM); 1.1 ± 0.068 in assay [1] (100 nM). Further, the surviving fraction in assay [1] (500 nM) stood at 1.248 ± 0.0097; in assay [1] (1000 nM) it was 1.25 ± 0.13; in assay [2] (0.5 nM), 1.11 ± 0.054; in assay [2] (1 nM), 1.16 ± 0.099; in assay [2] (5 nM) it was 1.24 ± 0.14; in assay [2] (10 nM) it was 1.08 ± 0.041. Moreover, the surviving fraction in assay [2] (50 nM) turned out to be 1.03 ± 0.13; in assay [2] (100 nM) it was 0.908 ± 0.043; in assay [2] (500 nM), 0.782 ± 0.039; in assay [2] (1000 nM), 0.769 ± 0.074.

On to YAMATO SYNOVIAL, for which the surviving fraction is 0.15 ± 0.019 in assay [1] (0.5 nM); 0.825 ± 0.054 in assay [1] (1 nM); 0.619 ± 0.023 in assay [1] (5 nM); 0.919 ± 0.055 in assay [1] (10 nM); 0.281 ± 0.024 in assay [1] (50 nM); 1.28 ± 0.086 in assay [1] (100 nM). In addition, the surviving fraction in assay [1] (500 nM) worked out at 0.874 ± 0.083; in assay [1] (1000 nM), 1.24 ± 0.091; in assay [2] (0.5 nM), 0.319 ± 0.026; in assay [2] (1 nM) it was 1.07 ± 0.11; in assay [2] (5 nM), 0.9 ± 0.084; in assay [2] (10 nM), 1.2 ± 0.044. In addition, the surviving fraction came out at 0.483 ± 0.013 in assay [2] (50 nM), 1.1 ± 0.14 in assay [2] (100 nM), 0.789 ± 0.064 in assay [2] (500 nM) and 0.928 ± 0.049 in assay [2] (1000 nM).

On to ZR751 BREAST, for which the surviving fraction in assay [1] (0.5 nM) was found to be 0.774 ± 0.021; in assay [1] (1 nM), 0.834 ± 0.051; in assay [1] (5 nM), 0.768 ± 0.062; in assay [1] (10 nM), 0.811 ± 0.078; in assay [1] (50 nM) it was 0.783 ± 0.08; in assay [1] (100 nM), 0.826 ± 0.099. Further, the surviving fraction worked out at 0.949 ± 0.086 in assay [1] (500 nM); 0.947 ± 0.061 in assay [1] (1000 nM); 0.804 ± 0.14 in assay [2] (0.5 nM); 0.868 ± 0.022 in assay [2] (1 nM); 0.806 ± 0.049 in assay [2] (5 nM); 0.814 ± 0.056 in assay [2] (10 nM). For the same test system, the surviving fraction worked out at 0.697 ± 0.071 in assay [2] (50 nM), 0.846 ± 0.03 in assay [2] (100 nM), 0.677 ± 0.03 in assay [2] (500 nM) and 0.682 ± 0.011 in assay [2] (1000 nM).
